US12006310B2, “Preparation and application of triterpenoids with effect of improving glucose and lipid metabolism disorders” (SERICULTURAL&AGRI-FOOD RESEARCH INSTITUTE GUANGDONG ACADEMY …, priority 2022, dated 2024)
Where two headings read alike, the source gives them in different places.

Experiments:
[1] = system: primary isolated hepatic parenchymal cells of SD rats; assay: Hepatic gluconeogenesis inhibitory activity in primary hepatocytes; format: cell-based; settings: for inhibition at 20 µM / inhibition at 40 µM: Rattus norvegicus, Hepatocyte, read-out: hepatic gluconeogenesis inhibitory activity
From the text: In this embodiment, primary isolated hepatic parenchymal cells of SD rats (purchased from Experimental Animal Center of Southern Medical University) were used as a model, and berberine, a traditional Chinese medicine as a hypoglycemic agent, was used as a positive control to evaluate an impact of the novel triterpenoid compound (23R, 25E)-3β-hydroxy-23-methoxycucurbita-6,25-dien-5β,19-olide3-O-β-d-allopyranoside and Momordicoside G, and compositions thereof in different proportions (novel triterpenoid compound:Momordicoside G=1:0.5, 1:1.0, or 1:1.5) on hepatic gluconeogenesis, thereby further elaborating beneficial effects of the present invention. The process was as follows:
In-situ perfusion digestion was used to digest SD rat liver with type IV collagenase. After being dispersed, hepatocytes were transferred to a 49% Percoll separation solution for centrifugation. After supernatant was discarded, the cells adhered for 6 hours to a 24-well plate coated with 0.2% gelatin. After starvation in a serum-free low-sugar medium for 8 hours, the supernatant was discarded, the cells were washed with PBS buffer, and then a reaction solution (sugar-free DMEM containing 2 mM sodium pyruvate and 20 mM sodium lactate) was added, waiting for a sample test.
Triterpenoid compounds (a novel triterpenoid compound and Momordicoside G) were dissolved in dimethyl sulfoxide (DMSO) to prepare […] mother liquor. Through dilution with the foregoing reaction solution, the final concentrations of the triterpenoid compounds finally added into cell culture wells were 20 μM and 40 μM respectively, and the final concentration of the DMSO was 0.4%. A negative control was a reaction solution containing the DMSO with the same concentration (0.4%). Berberine, a positive control, was prepared into 40 mM with ultrapure water, the final concentrations for the test were 20 μM and 40 μM, and the final concentration of the DMSO was kept at 0.4%. To-be-tested samples were added into the cell reaction solution, and continued to be cultured for 6 hours. Then the glucose concentration in the culture medium (that is, the reaction solution) of each well was measured, and then the medium was discarded. After being washed with PBS, the cells were lysed with 250 mM NaOH, and the protein concentration was measured by using a Coomassie brilliant blue method. By reading an absorbance value, the concentration of glucose in the medium in all sample wells and the concentration of protein after lysis were determined by using a standard curve method, and a ratio of the two was used to measure an average gluconeogenesis level of the cells in the wells.

3T3-L1 preadipocytes = assay: Inhibitory activity against 3T3-L1 preadipocyte-induced differentiation (oil red O staining); format: cell-based, mouse; settings: for content of lipid droplets after oil red O staining: 20 μM and 40 μM, compared with differentiation solution group
Protocol: A mouse embryonic fibroblast 3T3-L1 cell line (preadipocytes) was purchased from Shanghai Cell Bank, Chinese Academy of Sciences.
In the test, samples fell into an undifferentiation control group (cultured with a normal DMEM), a negative control group (cultured with a DMEM containing a differentiation solution), and a sample intervention group [cultured with a DMEM containing a differentiation solution+a or 40 μM triterpenoid compound or triterpenoid composition (novel triterpenoid compound:Momordicoside G=0.5, 1.0, or 1.5)]. Differentiation was induced by using a methylisobutylxanthine, dexamethasone and insulin, (MDI) induction medium (the induction medium is a differentiation solution, and the differentiation solution includes a high-sugar DMEM containing 0.5 mmol/L IBMX, 1 μmol/L DEX, 10 mg/L insulin, and 10% FCS). 3T3-L1 preadipocytes were cultured in an incubator with 5% CO2 and 37° C. saturated humidity, and cultured in the DMEM containing 10% FCS until the density of monolayer adherent cells was greater than or equal to 90%. After being washed with Hanks' balanced salt solution (HBSS), the cells were digested by trypsin, and then inoculated into a 6-well culture plate (1×10^5 cells/well). After cell contact inhibition, a fresh DMEM containing 10% FCS was used for fusion culture for 2 days. On the 3rd day (that is, the 0th day of differentiation), the cells were cultured in the differentiation solution for culture, and 0.1% DMSO and a novel triterpenoid compound (23R, 25E)-3β-hydroxy-23-methoxycucurbita-6,25-dien-5β,19-olide3-O-β-d-allopyranoside with concentration gradients of 20 μM and 40 μM or known compound Momordicoside G or a composition of the two were added in the sample intervention group. 0.1% DMSO was added in the negative control group. On the 2nd day of differentiation, the medium was replaced with a DMEM containing only 10 mg/L insulin and 10% FCS, the samples of each group continued to be cultured, and the medium was replaced once every 2 days until the experiment ended on the 8th day of differentiation. After the experiment ended, the medium was discarded, the cells were washed twice with cold PBS, and the cells were fixed with 4% paraformaldehyde solution for 60 min. After paraformaldehyde was removed and PBS was added for washing, the fixed cells were stained with an oil red O dye kit (Solarbio, G1262-4) for 1 hour, and the cells were washed with 60% isopropanol for 3 times to remove the uncolored oil red O dye and were photographed for observation. After the observation, the cells were lysed with lysate (containing 4% NP-40), and an absorbance value at 490 nm was measured, and calculated by using an OD value.

[2] = 20 μM, 6 hours culture, primary hepatocytes
[3] = 40 μM, 6 hours culture, primary hepatocytes

COc1ccc2cc3[n+](cc2c1OC)CCc1cc2c(cc1-3)OCO2 [berberine]
inhibition at 20 µM [1, 2]: 15.6% | inhibition at 40 µM [1, 3]: 35.2%

COC(C=C(C)C)C[C@@H](C)[C@H]1CC[C@@]2(C)C3C=CC45OC(=O)[C@]3(CC[C@]12C)C4CC[C@H](O[C@@H]1O[C@H](CO)[C@H](O)[C@H](O)[C@H]1O)C5(C)C (stereo partly drawn) [novel triterpenoid compound, (23R, 25E)-3β-hydroxy-23-methoxycucurbita-6,25-dien-5β,19-olide3-O-β-d-allopyranoside]
inhibition at 20 µM ([1]; 6 h): 32.1% | inhibition at 40 µM ([1]; 6 h): 28.9% | content of lipid droplets after oil red O staining (3T3-L1 preadipocytes): decreased significantly | inhibition at 20 µM (3T3-L1 preadipocytes; Mus musculus, 3T3-L1, 20 μM, 8th day of differentiation, oil red O, absorbance 490 nm, vs differentiation solution group, read-out: inhibition rate on differentiation of 3T3-L1 preadipocytes): 35.5% | inhibition at 40 µM (3T3-L1 preadipocytes; Mus musculus, 3T3-L1, 40 μM, 8th day of differentiation, oil red O, absorbance 490 nm, vs differentiation solution group, read-out: inhibition rate on differentiation of 3T3-L1 preadipocytes): 56.4%

Momordicoside G
hepatic gluconeogenesis inhibitory activity [1, 2]: 20.75% | hepatic gluconeogenesis inhibitory activity [1, 3]: 34.42% | content of lipid droplets after oil red O staining (3T3-L1 preadipocytes): decreased significantly | inhibition rate on differentiation of 3T3-L1 preadipocytes (3T3-L1 preadipocytes; 20 μM, 8th day of differentiation, oil red O, absorbance 490 nm, vs differentiation solution group): 23.77% | inhibition rate on differentiation of 3T3-L1 preadipocytes (3T3-L1 preadipocytes; 40 μM, 8th day of differentiation, oil red O, absorbance 490 nm, vs differentiation solution group): 51.27%
